{"source": "patent US4661297A", "about": "“Basic ethers of 7-oxo-7H-benzo(c) fluorene and a process for their production” (SPOFA, spojene podniky pro zdravotnickou vyrobu, priority 1980, dated 1987)", "key": {"[1]": {"tested_on": "Ehrlich's ascitic carcinoma", "assay": "Incorporation of 14C-adenine and 14C-valine into cellular fraction of Ehrlich's ascitic carcinoma in vitro", "format": "cell-based, mouse", "details": "for Radioactivity incorporation, adenine: control 1060 cpm; for Radioactivity incorporation, valine: control 2455 cpm; for IC50 / activity at 75 µM / activity at 150 µM / activity at 18.75 µM / activity at 37.5 µM: Mus musculus, Ehrlich", "excerpt": "In Table 4, the effect of Tiloron (NSC 143969; 2,7-bis-[2-(diethylamino)ethoxy]fluorene-9-one) and 5-(2-dimethylaminoethoxy)-7-oxo-7H-benzo(c) fluorene hydrochloride are compared on incorporation of ^14 C-adenine and ^14 C-valine with the cellular fraction of Ehrlich's ascitic carcinoma (insoluble in trichloacetic acid). The tests in vitro reveal that the composition of the invention was more than 10 times as effective as Tiloron. The inhibition of incorporation of adenine and valine into the used system of tumor cells is considered as an indication of an anti-tumorous, cytostatic action. This biological activity of the described compound is considerably greater than that of its congener Tiloron. (See also Table 4.)\nEffects of Tiloron and substance 13468 on incorporation of ^14\nC-adenine and ^14 C-valine\ninto cellular fraction of Ehrlichs ascitic carcinoma, insoluble in\nin vitro. Radioactivity incorporation expressed in cpm.\nIC50 = concentration inhibiting incorporation by 50 percent."}, "Acute toxicity in mice": {"assay": "Acute toxicity in mice", "details": "mouse, in vivo, mice S, males 22-24 gram", "excerpt": "The anti-tumor compounds described herein have also been studied from the standpoint of toxicity and the conclusion drawn that they are not toxic to mammalian hosts. The toxicological data set forth in Table IX, below, supports this conclusion."}, "Yoshida's Tumor": {"tested_on": "Yoshida's Tumor", "assay": "Inhibition of incorporation of labelled substrates in Yoshida's tumor", "format": "cell-based", "details": "Rattus norvegicus, read-out: IC50", "excerpt": "Tumor growth may be observed clinically or in experiments in vivo, that is, with experimental animals, or in vitro, for example, in tissue cultures prepared from tumors. Assessment of tumor growth may be effected by measuring the weight of the tumor mass or, more effectively, by measuring the radioactivity after incorporation therein of certain substances of natural origin such as amino acids, adenine, thymidine and the like labelled with radioactive atoms such as ^14 C, ^3 H, etc.\nThus, by way of exemplification, the IC^50 values (inhibitory concentration which lowered the initial rate of ^14 C incorporation to 50% of control) are shown in Table VI, below (Yoshida's Tumor, (U-^14 C) amino acid mixture)\nThe ^IC 50 values of compound 13468 are also shown in Table VII with varying substrates."}, "[2]": {"tested_on": "human myelogenous leukemia cells", "assay": "DNA biosynthesis inhibition in human myelogenous leukemia cells", "format": "cell-based"}, "[3]": {"tested_on": "haemagglutinins (antibody formation)", "assay": "Haemagglutinin titre in mouse serum after ram erythrocyte immunization", "format": "in vivo", "details": "for Haemagglutinins % of control titre / Haemagglutinins titre: day 9; for Haemagglutinins titre: control 343", "excerpt": "(§1) Haemagglutanin and haemolysin titres in mouse serum on day 9 after ram\n(§2) immunization under effect of substance 13468. Substance injected\n(§3) either for 5 days (2 days before, on day of, 2 days after immunization)\n(§4) (2 days before, on day of, 8 days after immunization). Groups of 12\n(§5) expressed by mean value of highest attenuation of serum eliciting"}, "[4]": {"tested_on": "haemolysins (antibody formation)", "assay": "Haemolysin titre in mouse serum after ram erythrocyte immunization", "format": "in vivo", "details": "day 9; for Haemolysins titre: control 37", "excerpt": "as §1, §2, §3, §4, §5"}, "Ehrlich tumor": {"tested_on": "Ehrlich tumor", "assay": "Inhibition of incorporation of labelled substrate in Ehrlich tumor", "format": "cell-based", "details": "Mus musculus, substrate L-(U-14C) amino acid mixture"}}, "note": "Several values for one entry are separate records, joined by “and”; a condition that tells them apart may be missing. Equal entries are not always repeated. Entries after “also recorded” stand apart in the source; their conditions may differ. Where two headings read alike, the source gives them in different places."}
{"smiles": "CN(C)CCOc1cc2c(c3ccccc13)-c1ccccc1C2=O.Cl", "note": "[compound 13468, 5-(2-Dimethylaminoethoxy)-7-oxo-7H-benzo(c) fluorene hydrochloride]", "values": [{"measurement": "Radioactivity incorporation, adenine", "setting": "[1]; 75 μM", "result": 266, "unit": "cpm"}, {"measurement": "Radioactivity incorporation, valine", "setting": "[1]; 75 μM", "result": 887, "unit": "cpm"}, {"measurement": "Radioactivity incorporation, adenine", "setting": "[1]; 150 μM", "result": 59, "unit": "cpm"}, {"measurement": "Radioactivity incorporation, valine", "setting": "[1]; 150 μM", "result": 349, "unit": "cpm"}, {"measurement": "Radioactivity incorporation, adenine", "setting": "[1]; 18,75 μM", "result": 757, "unit": "cpm"}, {"measurement": "Radioactivity incorporation, valine", "setting": "[1]; 18,75 μM", "result": 2394, "unit": "cpm"}, {"measurement": "Radioactivity incorporation, adenine", "setting": "[1]; 37,5 μM", "result": 714, "unit": "cpm"}, {"measurement": "Radioactivity incorporation, valine", "setting": "[1]; 37,5 μM", "result": 2253, "unit": "cpm"}, {"measurement": "IC50", "setting": "[1]; read-out: IC50 (concentration inhibiting incorporation by 50 percent), adenine", "result": 53, "unit": "µM"}, {"measurement": "IC50", "setting": "[1]; read-out: IC50 (concentration inhibiting incorporation by 50 percent), valine", "result": 65, "unit": "µM"}, {"measurement": "activity at 75 µM", "setting": "[1]; 75 μM, read-out: Incorporation of adenine relative to control (0 μM = 100%)", "result": 25, "unit": "%"}, {"measurement": "activity at 75 µM", "setting": "[1]; 75 μM, read-out: Incorporation of valine relative to control (0 μM = 100%)", "result": 36, "unit": "%"}, {"measurement": "activity at 150 µM", "setting": "[1]; 150 μM, read-out: Incorporation of adenine relative to control (0 μM = 100%)", "result": 6, "unit": "%"}, {"measurement": "activity at 150 µM", "setting": "[1]; 150 μM, read-out: Incorporation of valine relative to control (0 μM = 100%)", "result": 14, "unit": "%"}, {"measurement": "activity at 18.75 µM", "setting": "[1]; 18,75 μM, read-out: Incorporation of adenine relative to control (0 μM = 100%)", "result": 71, "unit": "%"}, {"measurement": "activity at 18.75 µM", "setting": "[1]; 18,75 μM, read-out: Incorporation of valine relative to control (0 μM = 100%)", "result": 98, "unit": "%"}, {"measurement": "activity at 37.5 µM", "setting": "[1]; 37,5 μM, read-out: Incorporation of adenine relative to control (0 μM = 100%)", "result": 87, "unit": "%"}, {"measurement": "activity at 37.5 µM", "setting": "[1]; 37,5 μM, read-out: Incorporation of valine relative to control (0 μM = 100%)", "result": 92, "unit": "%"}, {"measurement": "times as effective as Tiloron", "setting": "[1]; adenine and valine incorporation, in vitro", "result": "more than 10 times"}, {"measurement": "LD50", "setting": "Acute toxicity in mice; iv, intravenously", "result": 90, "unit": "mg/kg"}, {"measurement": "LD50", "setting": "Acute toxicity in mice; po, orally", "result": 600, "unit": "mg/kg"}, {"measurement": "LD50", "setting": "Acute toxicity in mice; sc, subcutaneously", "result": 490, "unit": "mg/kg"}, {"measurement": "IC50", "setting": "Yoshida's Tumor; substrate 5-iodo-2-deoxy(6-3H) uridine", "result": 12, "unit": "µM"}, {"measurement": "IC50", "setting": "Yoshida's Tumor; substrate (6-3H) uridine", "result": "36 µM and 12.6 µg/mL"}, {"measurement": "IC50", "setting": "Yoshida's Tumor; substrate (thymine U-14C) thymidine", "result": 4, "unit": "µM"}, {"measurement": "IC50", "setting": "Yoshida's Tumor; substrate L-(U-14)leucine", "result": 29, "unit": "µM"}, {"measurement": "IC50", "setting": "Yoshida's Tumor; substrate L-(U-14C) amino acid mixture, Table VII", "result": 32, "unit": "µM"}, {"measurement": "IC50", "setting": "[2]", "result": 5, "unit": "µM"}, {"measurement": "Immunosuppressive effect on antibody formation", "setting": "[3]; mice, in words, hydrochloride", "result": "immunosuppressive effects on antibody formation in mice; also recorded: inhibition of the formation of immunological serum anti-bodies"}, {"measurement": "Haemagglutinins % of control titre", "setting": "[3]; s.c. 5×8 mg/kg", "result": 71, "unit": "%"}, {"measurement": "Haemagglutinins titre", "setting": "[3]; s.c. 5×8 mg/kg", "result": 243}, {"measurement": "Haemagglutinins % of control titre", "setting": "[3]; s.c. 5×40 mg/kg", "result": 3.5, "unit": "%"}, {"measurement": "Haemagglutinins titre", "setting": "[3]; s.c. 5×40 mg/kg", "result": 12}, {"measurement": "Haemagglutinins % of control titre", "setting": "[3]; s.c. 11×8 mg/kg", "result": 71, "unit": "%"}, {"measurement": "Haemagglutinins titre", "setting": "[3]; s.c. 11×8 mg/kg", "result": 243}, {"measurement": "Haemagglutinins % of control titre", "setting": "[3]; s.c. 11×40 mg/kg, Suppressed", "result": "under 2.9%"}, {"measurement": "Haemagglutinins titre", "setting": "[3]; s.c. 11×40 mg/kg, Suppressed", "result": "under 10"}, {"measurement": "Haemolysins % of control titre", "setting": "[4]; s.c. 5×8 mg/kg", "result": 132, "unit": "%"}, {"measurement": "Haemolysins titre", "setting": "[4]; s.c. 5×8 mg/kg", "result": 49}, {"measurement": "Haemolysins % of control titre", "setting": "[4]; s.c. 5×40 mg/kg", "result": "under 27%"}, {"measurement": "Haemolysins titre", "setting": "[4]; s.c. 5×40 mg/kg, Suppressed", "result": "under 10"}, {"measurement": "Haemolysins % of control titre", "setting": "[4]; s.c. 11×8 mg/kg", "result": "under 27%"}, {"measurement": "Haemolysins titre", "setting": "[4]; s.c. 11×8 mg/kg, Suppressed", "result": "under 10"}, {"measurement": "Haemolysins % of control titre", "setting": "[4]; s.c. 11×40 mg/kg", "result": "under 27%"}, {"measurement": "Haemolysins titre", "setting": "[4]; s.c. 11×40 mg/kg, Suppressed", "result": "under 10"}, {"measurement": "IC50", "setting": "Ehrlich tumor", "result": 31, "unit": "µM"}]}
